Results taken from patent publication US20240352414A1, “THREE-DIMENSIONAL DIRECT NEURONAL REPROGRAMMING TO MODEL ALZHEIMER'S DISEASE IN HUMAN NEURONS” (Washington University, priority 2023, published 2024).

Key:
Format in all cases: cell-based, human
ADAD spheroids [1] = experiment: Aβ deposition by whole mount immunostaining (6E10) in ADAD spheroids; settings: ADAD spheroids treated from PID16 to 28; 5 μM β-secretase inhibitor IV or 40 μM DAPT; immunostained at PID28
Protocol: (§1) β-secretase inhibitor IV (cat #565788), DAPT (cat #D5942), and lamivudine (3TC) (cat #PHR1365) were purchased from Millipore Sigma. To make the stock solution, 5 mM β-secretase inhibitor IV and 40 mM DAPT were dissolved in DMSO and 100 mM 3TC was dissolved in sterile water. For thin gel culture, 2.5 μM β-secretase inhibitor IV, 20 μM DAPT, or 100 μM 3TC was added to the fresh media and used for half media changes starting at PID16 or PID22. For spheroids culture, 5 μM β-secretase inhibitor IV, 40 μM DAPT, or 100 μM 3TC was added to the fresh media and used for half media changes starting at PID16 or PID22.
(§2) Whole mount immunofluorescence staining of spheroid: For whole-mount immunostaining of neuronal spheroid, 3D cell culture clearing kit (abcam: ab243299) was used with modifications. Briefly, fixed spheroids on transwell inserts were permeabilized by sequential dehydration and rehydration using different concentrations of ethanol. […]
(§3) For quantification of the total volume of Aβ deposits, volume and area of the spheroid, co-localization analysis in tau related pathologies, and number of TUNEL positive cells or total cells, the “surface” module in Imaris was used for 3D reconstruction and quantification. […]

ADAD 3D-CNs = experiment: p-tau (AT8) and K63-ubiquitin/p-tau (PHF1) immunostaining in ADAD 3D-CNs; settings: ADAD 3D-CNs treated with β-secretase inhibitor IV or DAPT
Protocol: as §1
Immunofluorescence staining of thin gel: The fixed thin gel cultures were permeabilized in PBST (0.2% (vol/vol) TritonX-100 in PBS) at room temperature for 1h and blocked with blocking buffer (5% (wt/vol) BSA, 2% (wt/vol) normal goat serum, and 0.2% (vol/vol) TritonX-100) overnight at 4° C. The blocking buffer was removed from thin gel culture plates and primary antibodies diluted in blocking buffer were added to the plate followed by incubation overnight at 4° C. with gentle rocking. After washing 5 times with PBST, the cells were then incubated with secondary antibodies diluted in blocking buffer at room temperature for 3-5 hours or 4° C. overnight. Cells were washed 5 times with PBST, incubated with DAPI (Sigma) for 20 min at room temperature if needed and sealed with a drop of anti-fade prolong gold reagent (Life technology). Plates were sealed with parafilm and stored at 4° C. before imaging. The immunofluorescence images were taken by Leica SP5X white light laser confocal system.
(§4) For quantification of the total volume of Aβ deposits, volume and area of the spheroid, co-localization analysis in tau related pathologies, and number of TUNEL positive cells or total cells, the “surface” module in Imaris was used for 3D reconstruction and quantification. For measuring the intensity of neurite outgrowth in spheroid, Image J was used by measuring the mean intensity at each region (distal, middle, and proximal).

ADAD spheroids [2] = experiment: Cell death (TUNEL staining) in ADAD spheroids; settings: ADAD spheroids at PID28, treatment starting at PID16
Protocol: as §1, §4
TUNEL assay: DeadEND Fluorometric TUNEL system kit was purchased from Promega (G3250) and TUNEL assay was performed according to the manufacturer's description. Briefly, the cryosections of neuronal spheroids were permeabilized by 0.2% TritonX-100 in PBS for 5 mins followed by two 5 mins washes in PBS. […]

LOAD spheroids = experiment: Aβ deposition by whole mount immunostaining (6E10) in LOAD spheroids; settings: treatment started at PID22 (after onset of Aβ deposition), examined at PID28
Protocol: as §1, §2, §3

Molecule	Aβ deposition (ADAD spheroids [1])	K63-ubiquitin+p-tau (PHF1) level (ADAD 3D-CNs)	p-tau (AT8) level (ADAD 3D-CNs)	cell death / neuronal death (ADAD spheroids [2])	effect on Aβ deposition (LOAD spheroids)	reduction of Aβ deposition (LOAD spheroids)
β-secretase inhibitor IV	reduction	significant reduction	significant reduction	reduced	non-significant effect	–
C[C@H](NC(=O)Cc1cc(F)cc(F)c1)C(=O)N[C@H](C(=O)OC(C)(C)C)c1ccccc1 [DAPT]	reduction	significant reduction	significant reduction	reduced	–	~30%
